Source: PubChem BioAssay (NCI)
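Exposure lasted 48 hours, with cells grown in 96-well plates and compounds tested at five concentrations. The concentration for full growth arrest is given as TGI.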

Key:
Experiment in all cases: NCI tumour cell line growth inhibition, 48 h
K-562 leukemia = test system: K-562 leukemia
786-0 renal = test system: 786-0 renal
NCI-H226 lung = test system: NCI-H226 lung
A498 renal = test system: A498 renal
RXF 393 renal = test system: RXF 393 renal
SK-OV-3 ovarian = test system: SK-OV-3 ovarian
HCT-15 colon = test system: HCT-15 colon
NCI-H23 lung = test system: NCI-H23 lung
MDA-MB-435 = test system: MDA-MB-435
BT-549 breast = test system: BT-549 breast

CCOC(=O)Cc1cc(=O)[nH]c(-n2[nH]c(C)c(CCO)c2=O)n1
TGI (K-562 leukemia): > 100 µM | TGI (786-0 renal): > 100 µM | TGI (NCI-H226 lung): > 100 µM | TGI (A498 renal): > 100 µM | TGI (RXF 393 renal): > 100 µM | TGI (SK-OV-3 ovarian): > 100 µM | TGI (HCT-15 colon): > 100 µM | TGI (NCI-H23 lung): > 100 µM | TGI (MDA-MB-435): > 100 µM

O=C(NNc1nc(-c2ccccc2)cs1)Nc1ccccc1
TGI (K-562 leukemia): > 100 µM | TGI (BT-549 breast): 60.9 µM | TGI (786-0 renal): 85 µM | TGI (NCI-H226 lung): 46.5 µM | TGI (RXF 393 renal): 36.8 µM | TGI (SK-OV-3 ovarian): 52.2 µM | TGI (HCT-15 colon): 74.4 µM | TGI (NCI-H23 lung): 41.2 µM | TGI (MDA-MB-435): 65.8 µM

Cc1cc(OCC(O)CO)ccc1Cl (centres undefined)
TGI (K-562 leukemia): > 100 µM | TGI (NCI-H226 lung): > 100 µM | TGI (A498 renal): > 100 µM | TGI (RXF 393 renal): > 100 µM | TGI (SK-OV-3 ovarian): > 100 µM | TGI (HCT-15 colon): > 100 µM | TGI (NCI-H23 lung): > 100 µM

Cc1ccc(S(=O)(=O)NC(=O)NC(CC(=O)O)C(=O)O)cc1 (centres undefined)
TGI (K-562 leukemia): > 100 µM | TGI (BT-549 breast): > 100 µM | TGI (786-0 renal): > 100 µM | TGI (RXF 393 renal): > 100 µM | TGI (SK-OV-3 ovarian): > 100 µM | TGI (HCT-15 colon): > 100 µM | TGI (NCI-H23 lung): > 100 µM

NC(=S)NS(=O)(=O)c1ccc(Cl)cc1
TGI (K-562 leukemia): > 100 µM | TGI (BT-549 breast): > 100 µM | TGI (786-0 renal): > 100 µM | TGI (NCI-H226 lung): > 100 µM | TGI (RXF 393 renal): > 100 µM | TGI (SK-OV-3 ovarian): > 100 µM | TGI (HCT-15 colon): > 100 µM | TGI (NCI-H23 lung): > 100 µM | TGI (MDA-MB-435): > 100 µM

CC(=O)c1c(O)cc(O)c(-c2c(C)cc(O)c3c2C(=O)c2cccc(O)c2C3=O)c1O
TGI (K-562 leukemia): 62.6 µM | TGI (BT-549 breast): 35.3 µM | TGI (786-0 renal): 31.7 µM | TGI (NCI-H226 lung): 58.1 µM | TGI (A498 renal): 29.1 µM | TGI (SK-OV-3 ovarian): 27.4 µM | TGI (HCT-15 colon): 28.6 µM | TGI (MDA-MB-435): 34.5 µM

CCOP(=O)(Cc1nc(C#N)c(N)o1)OCC
TGI (K-562 leukemia): > 100 µM | TGI (786-0 renal): > 100 µM | TGI (NCI-H226 lung): > 100 µM | TGI (A498 renal): > 100 µM | TGI (RXF 393 renal): > 100 µM | TGI (SK-OV-3 ovarian): > 100 µM | TGI (HCT-15 colon): > 100 µM | TGI (MDA-MB-435): > 100 µM

COc1cccc(N(CN2C(=O)CCC2OC)C(C)=O)c1 (centres undefined)
TGI (K-562 leukemia): > 100 µM | TGI (786-0 renal): > 100 µM | TGI (NCI-H226 lung): > 100 µM | TGI (A498 renal): > 100 µM | TGI (RXF 393 renal): > 100 µM | TGI (SK-OV-3 ovarian): > 100 µM | TGI (HCT-15 colon): > 100 µM | TGI (NCI-H23 lung): > 100 µM | TGI (MDA-MB-435): > 100 µM

CC(C)=C=CP(=O)(O)c1ccccc1
TGI (K-562 leukemia): > 100 µM | TGI (786-0 renal): > 100 µM | TGI (NCI-H226 lung): > 100 µM | TGI (A498 renal): > 100 µM | TGI (SK-OV-3 ovarian): > 100 µM | TGI (HCT-15 colon): > 100 µM | TGI (NCI-H23 lung): > 100 µM | TGI (MDA-MB-435): > 100 µM

O=C(Cn1c(=O)oc2ccc(C(=O)c3cccc(Cl)c3)cc21)c1ccccc1
TGI (K-562 leukemia): > 100 µM | TGI (BT-549 breast): > 100 µM | TGI (NCI-H226 lung): > 100 µM | TGI (A498 renal): 95.8 µM | TGI (SK-OV-3 ovarian): > 100 µM | TGI (HCT-15 colon): > 100 µM | TGI (NCI-H23 lung): > 100 µM | TGI (MDA-MB-435): > 100 µM

Cc1cc(S(=O)(=O)Nc2n[nH]c(Nc3ccccc3)n2)c(SSc2cc(Cl)c(C)cc2S(=O)(=O)Nc2n[nH]c(Nc3ccccc3)n2)cc1Cl
TGI (K-562 leukemia): > 100 µM | TGI (BT-549 breast): > 100 µM | TGI (RXF 393 renal): > 10 µM | TGI (SK-OV-3 ovarian): > 100 µM | TGI (HCT-15 colon): > 100 µM | TGI (NCI-H23 lung): > 100 µM | TGI (MDA-MB-435): > 100 µM

Cn1c(-c2c(C3=CC(=O)N(c4ccccc4)C3=O)c3ccccc3n2C)cc2ccccc21
TGI (K-562 leukemia): > 100 µM | TGI (786-0 renal): > 100 µM | TGI (NCI-H226 lung): > 100 µM | TGI (RXF 393 renal): > 100 µM | TGI (SK-OV-3 ovarian): > 100 µM | TGI (HCT-15 colon): > 100 µM | TGI (NCI-H23 lung): > 100 µM | TGI (MDA-MB-435): > 100 µM

Clc1ncnc2c1nc(C#Cc1ccccc1)n2C1CCCCO1 (centres undefined)
TGI (K-562 leukemia): 7.46 µM | TGI (BT-549 breast): 4.1 µM | TGI (786-0 renal): 3.64 µM | TGI (NCI-H226 lung): 6.47 µM | TGI (A498 renal): 8.84 µM | TGI (SK-OV-3 ovarian): 21.3 µM | TGI (NCI-H23 lung): 4.15 µM | TGI (MDA-MB-435): 5.84 µM

Cc1cc(O)c(C(C)C)cc1C(=S)Nc1ccc(Cl)cc1
TGI (K-562 leukemia): 23.4 µM | TGI (BT-549 breast): 30.7 µM | TGI (786-0 renal): 27.3 µM | TGI (A498 renal): 29.7 µM | TGI (SK-OV-3 ovarian): 36.4 µM | TGI (HCT-15 colon): 25.1 µM | TGI (NCI-H23 lung): 17.7 µM | TGI (MDA-MB-435): 23.1 µM

O=C(CN1CCN(c2ccccn2)CC1)N1CCCn2c1nc1ccccc1c2=O
TGI (K-562 leukemia): > 100 µM | TGI (BT-549 breast): > 100 µM | TGI (786-0 renal): > 100 µM | TGI (NCI-H226 lung): > 100 µM | TGI (A498 renal): > 100 µM | TGI (SK-OV-3 ovarian): > 100 µM | TGI (HCT-15 colon): > 100 µM | TGI (NCI-H23 lung): > 100 µM | TGI (MDA-MB-435): > 100 µM

CC(C)N1[C@@H]2CCCC[C@H]2N(C(C)C)[P+]1=O
TGI (K-562 leukemia): > 100 µM | TGI (786-0 renal): > 100 µM | TGI (NCI-H226 lung): > 100 µM | TGI (A498 renal): > 100 µM | TGI (RXF 393 renal): > 100 µM | TGI (SK-OV-3 ovarian): > 100 µM | TGI (HCT-15 colon): > 100 µM | TGI (NCI-H23 lung): > 100 µM | TGI (MDA-MB-435): > 100 µM

Cc1ccc2c(c1)Nc1ccccc1P2(=O)O
TGI (K-562 leukemia): > 100 µM | TGI (786-0 renal): > 100 µM | TGI (NCI-H226 lung): > 100 µM | TGI (A498 renal): > 100 µM | TGI (RXF 393 renal): > 100 µM | TGI (SK-OV-3 ovarian): > 100 µM | TGI (HCT-15 colon): > 100 µM | TGI (NCI-H23 lung): > 100 µM | TGI (MDA-MB-435): > 100 µM

CCOC(=O)CN1C(=O)C(=O)N(c2ccc(OC)c3ccccc23)C1=O
TGI (K-562 leukemia): > 100 µM | TGI (BT-549 breast): > 100 µM | TGI (786-0 renal): > 100 µM | TGI (NCI-H226 lung): > 100 µM | TGI (RXF 393 renal): > 100 µM | TGI (SK-OV-3 ovarian): > 100 µM | TGI (HCT-15 colon): > 100 µM | TGI (NCI-H23 lung): > 100 µM | TGI (MDA-MB-435): > 100 µM
